From patent publication US5886178A, “3-aroylbenzylpyridazinone derivatives” (Syntex (U.S.A.) Inc., priority 1997, dated 1999)

Legend:
COX I = COX I (Homo sapiens, UniProt P23219); assay: Inhibition of COX I in vitro, partially purified enzyme, radiometric assay; format: biochemical; design: made in house; conditions: 20 micromolar arachidonic acid
Method: (§1) The COX I and COX II inhibitory activity of compounds of this invention in vitro was determined using partially purified COX I and COX II enzymes, prepared as described in J. Barnett et al, Biochim. Biophys.
(§2) COX I and COX II samples were diluted with Tris-HCl buffer (50 mM Tris-HCl, pH 7.9) containing 2 mM EDTA and 10% glycerol and reconstituted by incubating first with 2 mM phenol for 5 minutes and then with 1 micromolar hematin for an additional 5 minutes. 125 μl of the reconstituted COX I or COX II enzyme were preincubated for 10 minutes at room temperature in a shaking water bath with the compounds of the invention dissolved in 2-15 μl of DMSO or the carrier vehicles (control samples). The enzyme reaction was initiated by adding 25 μl of 1-[14C]arachidonic acid (80,000-100,000 cpm/tube; 20 micromolar final concentration) and the reaction was allowed to continue for an additional 45 seconds. The reaction was terminated by adding 100 μl of 2N HCl and 750 μl water. An aliquot (950 μl) of the reaction mixture was loaded onto a 1 ml C18 Sep-Pak column (J. T. Baker, Phillipsburg, N.J.) which had been previously washed with 2-3 ml methanol and equilibrated with 5-6 ml distilled water. Oxygenated products were quantitatively eluted with 3 ml of acetonitrile/water/acetic acid (50:50:0.1, v/v) and the radioactivity in the eluate determined in a scintillation counter.

[1] = Acetic Acid-induced Rat Writhing Assay (analgesic activity); format: in vivo; conditions: 10 mg/Kg, oral, male Sprague Dawley rats
From the text: The analgesic activity of compounds of this invention may be determined by the Acetic Acid-induced Rat Writhing Assay, using a modification of the method described in Berkenkopf, J. W. and Weichman, B. M. "Production of Prostacyclin in Mice following Intraperitoneal Injection of Acetic Acid, Phenylbenzoquinone and Zymosan: Its Role in the Writhing Response". Prostaglandins: 36: 693-70 (1988). This assay is one of several acute assays which have been used to assess the analgesic activity of NSAIDs, and is considered predictive of human efficacy. The test materials were administered orally to male Sprague Dawley rats in a volume of 1 ml/100 g body weight as solutions or suspensions in an aqueous vehicle containing 0.9% NaCl, 0.5% sodium carboxymethyl-cellulose, 0.4% polysorbate 80, 0.9% benzyl alcohol and 97.3% water. Control rats received vehicle alone. One hour after compound administration, 0.3 ml/100 g body weight of 0.75% solution of acetic acid was injected intraperitoneally. The acetic acid injection induces a series of characteristic writhing responses, which were counted over the period between 15 and 30 minutes after the injection. The analgesic activity of test materials is expressed as the percentage inhibition of writhing in the test group relative to the control group.

COX II = target: T1, COX II (Homo sapiens, UniProt P35354); assay: Inhibition of COX II in vitro, partially purified enzyme, radiometric assay; format: biochemical; design: made in house; conditions: 20 micromolar arachidonic acid
T1 sequence (P35354 18-604): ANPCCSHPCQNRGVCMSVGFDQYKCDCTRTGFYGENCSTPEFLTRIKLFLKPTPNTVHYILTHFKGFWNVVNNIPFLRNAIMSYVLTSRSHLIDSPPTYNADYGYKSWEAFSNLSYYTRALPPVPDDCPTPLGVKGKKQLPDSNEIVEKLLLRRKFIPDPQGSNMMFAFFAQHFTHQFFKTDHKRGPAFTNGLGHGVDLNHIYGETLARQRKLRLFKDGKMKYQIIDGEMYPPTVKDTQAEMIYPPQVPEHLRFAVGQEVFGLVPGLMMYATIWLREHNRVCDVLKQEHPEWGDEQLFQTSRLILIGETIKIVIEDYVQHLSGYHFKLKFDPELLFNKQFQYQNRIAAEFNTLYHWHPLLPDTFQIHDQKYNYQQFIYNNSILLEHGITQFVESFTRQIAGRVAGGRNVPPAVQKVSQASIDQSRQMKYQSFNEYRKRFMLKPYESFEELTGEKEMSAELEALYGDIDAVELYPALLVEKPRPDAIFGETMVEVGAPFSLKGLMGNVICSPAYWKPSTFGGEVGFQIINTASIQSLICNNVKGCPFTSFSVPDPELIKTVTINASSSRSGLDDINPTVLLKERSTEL
Method: as §1, §2

[2] = test system: prostaglandin E2 synthesis; assay: Inhibition of eicosanoid (PGE2) synthesis in vivo, carrageenan air-pouch model in rats; design: species or system rat; conditions: oral, male rats
Method: In this assay, an air-pouch is created in the rat and the PGE2 levels in the air-pouch exudate are measured by enzyme immunoassay. Briefly, male rats were anesthetized using a 60:40 CO2 :O2 mixture and subsequently injected subcutaneously with 20 ml of sterilized air, under aseptic conditions, in the proximal area of the dorsum. This injection of sterile air causes the creation of a subcutaneous "air pouch". The next day, a further 10 ml of sterile air was injected into the previously formed pouch using the same technique. […] Control rats received vehicle alone. After 30 minutes, 5 ml of a 0.5% solution of carrageenan (Sigma, Lambda Type IV) was injected into the air pouch. The rats were euthanized 3 hr after the compound administration. […] The total exudate volume was recorded, and the samples were analyzed for PGE2 and 6-keto PGF1 by ELISA (Titerzyme®, PerSeptive Diagnostics) and TxB2 by radioimmuno assay (New England Nuclear Research, Catalog No. NEK-037), according to the manufacturer's directions.
The mean concentrations of PGE2 were calculated for each group. The anti-inflammatory activity of test materials is expressed as the percent inhibition of PGE2 formation in the test group relative to the control group.

[3] = Carrageenan-induced paw edema in the rat (anti-inflammatory activity); format: in vivo; conditions: 3 h, 10 mg/Kg, oral, female rats, read-out: % inhibition of increase in hind paw weight
Method: The anti-inflammatory activity of compounds of this invention was determined by measuring the inhibition of carrageenan-induced paw edema in the rat, using a modification of the method described in Winter C. k et al (1962) "Carrageenan-Induced Edema in Hind Paw of the Rat as an Assay for Anti-inflammatory Drugs". Proc. Soc. Exp. Biol. Med. 111: 544-547. This assay has been used as a primary in vivo screen for anti-inflammatory activity of most NSAIDs, and is considered predictive of human efficacy. Briefly, test materials were administered orally to female rats in a volume of 1 ml prepared as solutions or suspensions in an aqueous vehicle containing 0.9% NaCl, 0.5% sodium carboxymethyl-cellulose, 0.4% polysorbate 80, 0.9% benzyl alcohol and 97.3% distilled water. Control rats received vehicle alone. After 1 hr 0.05 ml of a 0.5% solution of Carrageenan (Type IV Lambda, Sigma Chemical Co.) in 0.9% saline was injected into the subplantar region of the right hind paw. Three hours later the rats were euthanized in a carbon dioxide atmosphere; hind paws were removed by severing at the tatso-crural joint; and the left and right paws were weighed. The increase in weight of the right paw over the left paw was obtained for each animal and the mean increases were calculated for each group. The anti-inflammatory activity of the test materials is expressed as the percent inhibition of the increase in hind paw weight of the test group relative to the vehicle-dosed control group.
The anti-inflammatory activities (expressed as % inhibition) of some of the compounds of the invention were: […]

[4] = Alzheimer's patients; Rogers, J., et. al., Neurology, (1993), 43, 1609; cited from earlier work

COX I, sequence (P23219 24-599): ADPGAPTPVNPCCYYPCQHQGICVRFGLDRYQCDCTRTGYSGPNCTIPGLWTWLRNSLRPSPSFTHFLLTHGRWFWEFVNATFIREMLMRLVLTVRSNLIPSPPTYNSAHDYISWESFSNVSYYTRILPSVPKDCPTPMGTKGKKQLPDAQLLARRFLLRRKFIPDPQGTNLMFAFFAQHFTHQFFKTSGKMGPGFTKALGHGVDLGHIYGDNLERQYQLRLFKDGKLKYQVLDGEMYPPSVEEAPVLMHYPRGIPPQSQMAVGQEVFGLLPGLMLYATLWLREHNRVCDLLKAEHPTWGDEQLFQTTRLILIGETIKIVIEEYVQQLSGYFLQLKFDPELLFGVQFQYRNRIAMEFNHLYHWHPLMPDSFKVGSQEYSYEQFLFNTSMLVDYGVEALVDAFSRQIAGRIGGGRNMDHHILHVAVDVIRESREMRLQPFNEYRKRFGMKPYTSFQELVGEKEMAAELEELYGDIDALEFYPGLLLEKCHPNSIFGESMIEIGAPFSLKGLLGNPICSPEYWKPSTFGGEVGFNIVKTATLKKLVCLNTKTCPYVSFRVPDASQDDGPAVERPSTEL

IC50 (COX I) | IC50 (COX II) | SMILES | % inhibition of writhing responses [1] | % inhibition of air pouch PGE2 formation ([2]; 10 mg/Kg) | inhibition in vivo at 10 mg/kg [3] | % inhibition of air pouch PGE2 formation ([2]; 2-5 mg/Kg) | effect on cognitive decline [4]
57 µM | 0.1 µM | COc1ccc(C(=O)c2cccc(Cc3ccc(=O)[nH]n3)c2Cl)cc1 [Cpd 2, 6-[3-(4-methoxybenzoyl)-2-chlorobenzyl]-2H-pyridazin-3-one] | 9% | 32% | 20% |  | 
 |  | COc1ccc2c(c1)c(CC(=O)O)c(C)n2C(=O)c1ccc(Cl)cc1 [Indomethacin, reference compound] |  |  |  | > 70% | inhibit the cognitive decline of Alzheimer's patients
